Counter-ions that a name gives are not always drawn.
System: RPA194
Assay: RPA194 destruction / Pol I inhibition, high-content imaging in A375 cells
Format: cell-based
Conditions: A375 cells treated for 4 hours, anti-RPA194 immunofluorescence; pIC50 >= 5.02 deemed a Pol I inhibitor
Procedure: Cell culture: A375 cells (CRL-1619, ATCC) were grown in DMEM (GJBCO) supplemented with […] (GTBCO) in 5% CO2 at 37° C.
Cell treatment and Imaging: 18 hours post-seeding in cell carrier black 384-well plates (PerkinElmer) at 15 000 cells/well, A375 cells were treated for 4 hours with a positive control or test compounds (9 serial semi-log dilutions, top concentration 10 μM). Upon treatment A375 cells were (i) fixed for 15 min at RT with 4% of paraformaldehyde, (ii) permeabilized for 20 min at RT with 0.1-0.5% of NP-40, (iii) incubated with primary antibodies at 4° C.: anti-RPA194 (1:1000-1:1250 dilution, sc-48385, Santa Cruz Biotechnology) and anti-gH2Ax (1:5000 dilution, 81299, Abcam or 1:4000, JBW302, Millipore) (iv) incubated for 1 h at RT with Hoechst (1:5000 dilution, H3570, ThermoFisher) and secondary antibodies: anti-mouse-AlexaFluor488 (1:2000 dilution, A11001, ThermoFisher) and anti-rabbit-AlexaFluor647 (1:2000 dilution, A21443, ThermoFisher) or goat anti-mouse AlexaFluor-594 (1:1000 dilution). Images were acquired on an Operetta CLS High-Content Analysis System (PerkinElmer) (40× objective; 9 fields/well) and processed using the Columbus Image Analysis System (PerkinElmer) or by using Molecular Devices ImageXpress Micro XLS High Content Imager and MetaXpress high-content acquisition and analysis software.
In the table below, (+) is associated with a pIC50 5.02 to 5.8; (++) with pIC50 5.8 to 6.3; and (+++) with a pIC50 above 6.3.

SMILES | Activity Range (pIC50)
C[C@@H]1CCCN1CCNC(=O)c1cccn2c(=O)c3ccc4ccccc4c3nc12 [Example 35, (R)-N-(2-(2-methylpyrrolidin-1-yl)ethyl)-7-oxo-7H-benzo[h]pyrido[2,1-b]quinazoline-12-carboxamide; hydrochloride 1] | + ((+) is associated with a pIC50 5.02 to 5.8)
CO[C@@H]1CCN(CCNC(=O)c2cccn3c(=O)c4ccc5ccccc5c4nc23)C1 [Example 24, (R)-N-(2-(3-methoxypyrrolidin-1-yl)ethyl)-7-oxo-7H-benzo[h]pyrido[2,1-b]quinazoline-12-carboxamide hydrochloride] | ++ ((++) with pIC50 5.8 to 6.3)
O=C(NC1CNC1)c1cccn2c(=O)c3ccc4ccccc4c3nc12 [Example 8, N-(azetidin-3-yl)-7-oxo-7H-benzo[h]pyrido[2,1-b]quinazoline-12-carboxamide dihydrochloride] | + ((+) is associated with a pIC50 5.02 to 5.8)
O=C(NCCN1C[C@@H](O)[C@H](O)C1)c1cccn2c(=O)c3ccc4ccccc4c3nc12 [Example 7, N-(2-((3R,4R)-3,4-dihydroxy-pyrrolidin-1-yl)ethyl)-7-oxo-7H-benzo[h]pyrido[2,1-b]quinazoline-12-carboxamide hydrochloride] | +++ ((+++) with a pIC50 above 6.3)
O=C(NCCN1CCC(O)CC1)c1cccn2c(=O)c3ccc4ccccc4c3nc12 [Example 5, N-(2-(4-hydroxypiperidin-1-yl)ethyl)-7-oxo-7H-benzo[h]pyrido[2,1-b]quinazoline-12-carboxamide hydrochloride] | +++ ((+++) with a pIC50 above 6.3)
C[C@@H](CN1CC[C@H](O)C1)NC(=O)c1cccn2c(=O)c3ccc4ccccc4c3nc12 [Example 28, N-((S)-1-((S)-3-hydroxypyrrolidin-1-yl)propan-2-yl)-7-oxo-7H-benzo[h]pyrido[2,1-b]quinazoline-12-[(2S)-2-aminopropyl] pyrrolidin-3-ol; hydrochloride (165 mg, carboxamide hydrochloride] | ++ ((++) with pIC50 5.8 to 6.3)
C[C@@H](CN1C[C@H](O)[C@@H](O)C1)NC(=O)c1cccn2c(=O)c3ccc4ccccc4c3nc12 [Example 26, N-((S)-1-((3S,4S)-3,4-dihydroxy-pyrrolidin-1-yl)propan-2-yl)-7-oxo-7H-benzo[h]pyrido[2,1-b]quinazoline-12-carboxamide hydrochloride] | ++ ((++) with pIC50 5.8 to 6.3)
O=C(NCCCN1CC[C@@H](O)C1)c1cccn2c(=O)c3ccc4ccccc4c3nc12 [Example 40, (R)-N-(3-(3-hydroxypyrrolidin-1-yl)propyl)-7-oxo-7H-benzo[h]pyrido[2,1-b]quinazoline-12-carboxamide; hydrochloride] | + ((+) is associated with a pIC50 5.02 to 5.8)
CN(C)CCNC(=O)c1cccn2c(=O)c3ccc4ccccc4c3nc12 [Example 1, hydrochloride] | +++ ((+++) with a pIC50 above 6.3)
O=C(NCCN1CC[C@H](F)C1)c1cccn2c(=O)c3ccc4ccccc4c3nc12 [Example 33, (S)-N-(2-(3-fluoropyrrolidin-1-yl)ethyl)-7-oxo-7H-benzo[h]pyrido[2,1-b]quinazoline-12-carboxamide; hydrochloride] | + ((+) is associated with a pIC50 5.02 to 5.8)
CCN(CC)CCNC(=O)c1cccn2c(=O)c3ccc4ccccc4c3nc12 [Example 12, N-(2-(diethylamino)ethyl)-7-oxo-7H-benzo[h]pyrido[2,1-b]quinazoline-12-carboxamide; hydrochloride] | ++ ((++) with pIC50 5.8 to 6.3)
O=C(NCCN1CC[C@@H](F)C1)c1cccn2c(=O)c3ccc4ccccc4c3nc12 [Example 25, (R)-N-(2-(3-fluoropyrrolidin-1-yl)ethyl)-7-oxo-7H-benzo[h]pyrido[2,1-b]quinazoline-12-carboxamide hydrochloride] | + ((+) is associated with a pIC50 5.02 to 5.8)
C[C@@H](CNC(=O)c1cccn2c(=O)c3ccc4ccccc4c3nc12)N(C)C [Example 10, (S)-N-(2-(dimethylamino)propyl)-7-oxo-7H-benzo[h]pyrido[2,1-b]quinazoline-12-carboxamide; hydrochloride] | ++ ((++) with pIC50 5.8 to 6.3)
C[C@H](CN1CC[C@@H](O)C1)NC(=O)c1cccn2c(=O)c3ccc4ccccc4c3nc12 [Example 31, N-((R)-1-((R)-3-hydroxypyrrolidin-1-yl)propan-2-yl)-7-oxo-7H-benzo[h]pyrido[2,1-b]quinazoline-12-carboxamide hydrochloride] | +++ ((+++) with a pIC50 above 6.3)
C[C@H]1CCCN1CCNC(=O)c1cccn2c(=O)c3ccc4ccccc4c3nc12 [Example 36, (S)-N-(2-(2-methylpyrrolidin-1-yl)ethyl)-7-oxo-7H-benzo[h]pyrido[2,1-b]quinazoline-12-yl)ethan-1-carboxamide; hydrochloride] | + ((+) is associated with a pIC50 5.02 to 5.8)

More lines, now with the values ahead:

Activity Range (pIC50) | SMILES
+++ ((+++) with a pIC50 above 6.3) | C[C@H](CN1CC[C@H](O)C1)NC(=O)c1cccn2c(=O)c3ccc4ccccc4c3nc12 [Example 30, N-((R)-1-((S)-3-hydroxypyrrolidin-1-yl)propan-2-yl)-7-oxo-7H-benzo[h]pyrido[2,1-b]quinazoline-12-carboxamide hydrochloride]
++ ((++) with pIC50 5.8 to 6.3) | CNC(C)CNC(=O)c1cccn2c(=O)c3ccc4ccccc4c3nc12 (single isomer, unassigned) [Example 20, (R or S)-N-(2-(methylamino)propyl)-7-oxo-7H-benzo[h]pyrido[2,1-b]quinazoline-12-carboxamide; hydrochloride]
++ ((++) with pIC50 5.8 to 6.3) | CNC(C)CNC(=O)c1cccn2c(=O)c3ccc4ccccc4c3nc12 (single isomer, unassigned) [Example 19, (S or R)-N-(2-(methylamino)propyl)-7-oxo-7H-benzo[h]pyrido[2,1-b]quinazoline-12-carboxamide; hydrochloride]
+++ ((+++) with a pIC50 above 6.3) | C[C@H](CN(C)C)NC(=O)c1cccn2c(=O)c3ccc4ccccc4c3nc12 [Example 14, (R)-N-(1-(dimethylamino)propan-2-yl)-7-oxo-7H-benzo[h]pyrido[2,1-b]quinazoline-12-carboxamide; hydrochloride]
++ ((++) with pIC50 5.8 to 6.3) | CN1CC(NC(=O)c2cccn3c(=O)c4ccc5ccccc5c4nc23)C1 [Example 9, N-(1-methylazetidin-3-yl)-7-oxo-7H-benzo[h]pyrido[2,1-b]quinazoline-12-carboxamide hydrochloride]
+++ ((+++) with a pIC50 above 6.3) | O=C(NCCN1CC[C@@H](O)C1)c1cccn2c(=O)c3ccc4ccccc4c3nc12 [Example 3, (R)-N-(2-(3-hydroxypyrrolidin-1-yl)ethyl)-7-oxo-7H-benzo[h]pyrido[2,1-b]quinazoline-12-carboxamide; hydrochloride]
+++ ((+++) with a pIC50 above 6.3) | CNCCNC(=O)c1cccn2c(=O)c3ccc4ccccc4c3nc12 [Example 16, N-(2-(methylamino)ethyl)-7-oxo-7H-benzo[h]pyrido[2,1-b]quinazoline-12-carboxamide hydrochloride]

— patent US12662482B2 (The Johns Hopkins University, priority 2020, dated 2026)
